Assay results: patent US20170184612A1, “USE OF LEUKOCYTES AND NOVEL BIOMARKERS IN THE DIAGNOSIS, CONFIRMATION, AND TREATMENT OF A NEUROLOGICAL DISORDER” (The Trustees of Columbia University in the City of New York, priority 2014, published 2017)

Key:
[1] = tested on: peripheral blood mononuclear cells (PBMC), T cells; test: ELISpot assay, gamma-interferon release (SFC) after stimulation with a-synuclein epitope pools; assay type: cell-based, human; settings: for Pool +: IFNg, Pool Stimulated, number of donors with a positive response, Donors tested 1
Description: (§1) Blood from age matched controls and PD patients were obtained and mononuclear cells were isolated by gradient centrifugation.
(§2) Release of the cytokines gamma-interferon, which measures activation of CD4+ and/or CD8+ T cells, and the interleukin, IL-5, which measures activation of CD4+ T cells was measured by ELISpot assay. […] After 22 hours of stimulation at 37 C, the cells were removed and release of cytokines was measured by colorimetric detection of spot-forming cells (SFC). Confirmed release of cytokine is determined by the presence of a minimum of 20 SFC per million cells.
(§3) The binding algorithms in SubAim 1 predict how well the peptides would bind to MHC if present, but not if they are present in patients. To determine this, the presence of T cell response against the candidate antigens by patient blood-derived peripheral blood mononuclear cells (PBMC) is assessed by ELISPOT assays upon stimulation with the peptides. This assay detects and quantifies cytokine release (in this case, IFNγ and IL-5) from specific activated T cells.
(§4) Data were obtained from blood samples (25 ml) from 44 PD patients and 24 age-matched controls. The experiments were conducted blindly. PBMCs from these samples were isolated and exposed to pools comprising the 122 candidate class I and class II antigens and phosphorylated S129 epitopes generated in Subaim 1. For the PBMCs responsive to the pooled peptides, the response was then deconvoluted to identify individual epitopes.
(§5) PMBC fractions are recovered by standard methods with Ficoll gradient and T cells expansion (Oseroff et al., 2010). The methods for the analysis of T cell reactions and measurement of cytokines production using the enzyme-linked immunosorbent spot (ELISPOT) assay are published in analogous experiments to discover antigens in multiple sclerosis (Lolli et al., 2013) and in hay fever allergens (Oseroff et al., 2010). T cell responses are determined by measuring IFNγ and IL-5 release by ELISPOT. Statistical analysis of differences between populations is expected to be non-parametric and analyzed with the U-Mann-Whitney test. If there were a normal distribution of response, which is a priori unlikely as some patients have no T cell response, with an SD=1, 8 patients per group would be required to provide a p>90% that the study detect a >2 fold difference at a two-sided 0.05 significance level.

[2] = tested on: peripheral blood mononuclear cells (PBMC), T cells; test: ELISpot assay, IL-5 release (SFC) after stimulation with a-synuclein epitope pools; assay type: cell-based, human
Description: as §1, §2, §3, §4, §5

[3] = Patients Summary, PD patients, of donors tested (peptide)
[4] = Patients Summary, PD patients, single peptide
[5] = number of donors positive to the single peptide, second 'Pool Stimulated' section (from r296), 12 donors tested
[6] = peptide + / donors tested (peptide), second 'Pool Stimulated' section (from r296), 12 donors tested
[7] = single peptide, second 'Pool Stimulated' section (from r296), 12 donors tested
[8] = pool 'Phospho' (phosphorylated peptides)
[9] = Patients Summary, Phospho pool peptides
[10] = Patients Summary, Phospho pool peptides, 10 donors tested
[11] = peptides of pool 'Poshpho', 8 donors tested
[12] = peptides of pool 'Poshpho', 8 donors tested, number of donors positive

| Substance | Pool + [1] | IFNg Peptide + (donors positive to the peptide) [1, 3] | IFNg Avg SFC [1, 4] | IFNg Response Frequency [1, 4] | IFNg Total SFC [1, 4] | IL-g Peptide + (donors positive to the peptide) [2, 3] | IL-g Avg SFC [2, 4] | IL-g Response Frequency [2, 4] | IL-g Total SFC [2, 4] | IFNg Peptide + [1, 5] | IFNg Response Frequency [1, 6] | IFNg Total SFC [1, 7] | IL-g Peptide + [2, 5] | IL-g Response Frequency [2, 6] | IL-g Total SFC [2, 7] | Pool + [1, 8] | IFNg Avg SFC [1, 9] | IFNg Response Frequency [1, 9] | IFNg Total SFC [1, 9] | IFNg Peptide + (donors positive to the peptide) [1, 10] | other results |
| --- | --- | --- | --- | --- | --- | --- | --- | --- | --- | --- | --- | --- | --- | --- | --- | --- | --- | --- | --- | --- | --- |
| 3521.0037 (LYVGSKTKEG; listed as Homo sapiens) | 0 | 1 | 248 SFC | 17% | 248 SFC | 1 | 754 SFC | 17% | 754 SFC |  |  |  |  |  |  |  |  |  |  |  |  |
| 3521.0078 (YVGSKTKKGVVHGVA; listed as Homo sapiens) | 0 | 1 | 474 SFC | 17% | 474 SFC | 1 | 93 SFC | 17% | 93 SFC |  |  |  |  |  |  |  |  |  |  |  |  |
| 3521.005 (APGKTKEGVL; listed as Homo sapiens) | 0 | 1 | 44 SFC | 13% | 44 SFC | 2 | 67.5 SFC | 25% | 137 SFC | 0 | 0% | 0 SFC | 0 | 0% | 0 SFC |  |  |  |  |  |  |
| 3521.0072 (EGVVHGVTTVAEKTK; listed as Homo sapiens) | 1 | 0 |  | 0% | 0 SFC | 0 |  | 0% | 0 SFC | 1 | 50% | 93.3 SFC | 0 | 0% | 0 SFC |  |  |  |  |  | IFNg Avg SFC [1, 7]: 93.3 SFC |
| 3521.0062 (KTKKGVVHG; listed as Homo sapiens) | 0 | 1 | 113 SFC | 17% | 113 SFC | 1 | 40 SFC | 17% | 40 SFC |  |  |  |  |  |  |  |  |  |  |  |  |
| 3521.0058 (SEEGYQDYEP; listed as Homo sapiens) | 0 | 0 |  | 0% | 0 SFC | 0 |  | 0% | 0 SFC | 0 | 0% |  | 1 | 50% | 58 SFC | 1 | 107 SFC | 20% | 213 SFC | 1 | IFNg Avg SFC [1, 11]: 26.7 SFC; IFNg Response Frequency [1, 11]: 13%; IFNg Total SFC [1, 11]: 26.7 SFC; IFNg Peptide + [1, 12]: 1; IL-g Avg SFC [2, 9]: 73 SFC; IL-g Response Frequency [2, 9]: 10%; IL-g Total SFC [2, 9]: 73 SFC; IL-g Peptide + (donors positive to the peptide) [2, 10]: 1; IL-g Response Frequency [2, 11]: 0%; IL-g Total SFC [2, 11]: 0 SFC; IL-g Peptide + [2, 12]: 0; IL-g Avg SFC [2, 7]: 58 SFC |
| 3521.0001 (PVDPDNEAY; listed as Homo sapiens) | 0 | 0 |  | 0% | 0 SFC | 0 |  | 0% | 0 SFC | 0 | 0% |  | 0 | 0% | 0 SFC |  |  |  |  |  |  |
| 3521.0027 (AYEMPSEEGY; listed as Homo sapiens) | 0 | 0 |  | 0% | 0 SFC | 0 |  | 0% | 0 SFC | 0 | 0% |  | 0 | 0% | 0 SFC | 1 | 700 SFC | 20% | 1400 SFC | 2 | IFNg Avg SFC [1, 11]: 53 SFC; IFNg Response Frequency [1, 11]: 13%; IFNg Total SFC [1, 11]: 53 SFC; IFNg Peptide + [1, 12]: 1; IL-g Avg SFC [2, 9]: 530 SFC; IL-g Response Frequency [2, 9]: 20%; IL-g Total SFC [2, 9]: 1060 SFC; IL-g Peptide + (donors positive to the peptide) [2, 10]: 2; IL-g Avg SFC [2, 11]: 87 SFC; IL-g Response Frequency [2, 11]: 13%; IL-g Total SFC [2, 11]: 87 SFC; IL-g Peptide + [2, 12]: 1 |
| 3521.0063 (GVVHGVTTV; listed as Homo sapiens) | 1 | 1 | 143 SFC | 50% | 143 SFC | 0 |  | 0% | 0 SFC | 0 | 0% | 0 SFC | 0 | 0% | 0 SFC |  |  |  |  |  |  |
| 3521.0026 (MPSEEGYQD; listed as Homo sapiens) | 0 | 0 |  | 0% | 0 SFC | 0 |  | 0% | 0 SFC | 0 | 0% |  | 1 | 50% | 66 SFC | 1 | 407 SFC | 40% | 1627 SFC | 4 | IFNg Avg SFC [1, 11]: 27 SFC; IFNg Response Frequency [1, 11]: 13%; IFNg Total SFC [1, 11]: 27 SFC; IFNg Peptide + [1, 12]: 1; IL-g Avg SFC [2, 9]: 773 SFC; IL-g Response Frequency [2, 9]: 10%; IL-g Total SFC [2, 9]: 773 SFC; IL-g Peptide + (donors positive to the peptide) [2, 10]: 1; IL-g Avg SFC [2, 11]: 93 SFC; IL-g Response Frequency [2, 11]: 13%; IL-g Total SFC [2, 11]: 93 SFC; IL-g Peptide + [2, 12]: 1; IL-g Avg SFC [2, 7]: 66 SFC |
| 3521.0002 (PSEEGYQDY; listed as Homo sapiens) | 0 | 0 |  | 0% | 0 SFC | 0 |  | 0% | 0 SFC | 0 | 0% |  | 0 | 0% | 0 SFC | 0 | 460 SFC | 10% | 460 SFC | 1 | IFNg Response Frequency [1, 11]: 0%; IFNg Total SFC [1, 11]: 0 SFC; IFNg Peptide + [1, 12]: 0; IL-g Response Frequency [2, 9]: 0%; IL-g Total SFC [2, 9]: 0 SFC; IL-g Peptide + (donors positive to the peptide) [2, 10]: 0; IL-g Response Frequency [2, 11]: 0%; IL-g Total SFC [2, 11]: 0 SFC; IL-g Peptide + [2, 12]: 0 |
| 3521.003 (GSIAAATGFV; listed as Homo sapiens) | 0 | 0 |  | 0% | 0 SFC | 1 | 40 SFC | 25% | 40 SFC | 0 | 0% | 0 SFC | 0 | 0% | 0 SFC |  |  |  |  |  |  |
